≈ marks a conversion by molar mass, not a printed value.
Legend:
[1] = system: Staphylococcus epidermidis EPI2; experiment: MIC, standard agar-dilution assay (Table V); type: cell-based; details: S. epidermidis EPI2; agar dilution
Procedure: (§1) Especially noteworthy is the improved activity against gram-negative bacteria for several derivatives when compared to the activity of OMT. […] The MIC's in Tables V and VI were determined by standard agar-dilution assays. The MIC's in Table VII were obtained using a conventional broth-dilution microtiter test.

[2] = system: Streptococcus Group D X66; experiment: MIC, standard agar-dilution assay (Table V); type: cell-based; details: Streptococcus Group D X66; agar dilution
Procedure: as §1

Escherichia coli N10 = experiment: MIC, standard agar-dilution assay (Table V); type: cell-based; details: E. coli N10; agar dilution
Procedure: as §1

[3] = system: Klebsiella pneumoniae KAE; experiment: MIC, standard agar-dilution assay (Table V); type: cell-based; details: K. pneumoniae KAE; agar dilution
Procedure: as §1

[4] = system: Staphylococcus aureus X1.1; experiment: MIC, standard agar-dilution assay (Table V); type: cell-based; details: S. aureus X1.1; agar dilution
Procedure: as §1

[5] = system: Staphylococcus aureus S13E; experiment: MIC, standard agar-dilution assay (Table V); type: cell-based; details: S. aureus S13E; agar dilution
Procedure: as §1

[6] = system: Staphylococcus aureus V41; experiment: MIC, standard agar-dilution assay (Table V); type: cell-based; details: S. aureus V41, penicillin-resistant strain; agar dilution
Procedure: as §1

Streptococcus Group 9960 = experiment: MIC, standard agar-dilution assay (Table V); type: cell-based; details: Streptococcus Group 9960; agar dilution
Procedure: as §1

[7] = system: Staphylococcus epidermidis EPI1; experiment: MIC, standard agar-dilution assay (Table V); type: cell-based; details: S. epidermidis EPI1; agar dilution
Procedure: as §1

Escherichia coli EC14 = experiment: MIC, standard agar-dilution assay (Table V); type: cell-based; details: E. coli EC14; agar dilution
Procedure: as §1

[8] = system: Staphylococcus aureus X400; experiment: MIC, standard agar-dilution assay (Table V); type: cell-based; details: S. aureus X400, methicillin-resistant strain; agar dilution
Procedure: as §1

[9] = system: Klebsiella pneumoniae X26; experiment: MIC, standard agar-dilution assay (Table V); type: cell-based; details: K. pneumoniae X26; agar dilution
Procedure: as §1

[10] = system: Haemophilus influenzae Holt; experiment: MIC, standard agar-dilution assay (Table V); type: cell-based; details: H. influenzae Holt, ampicillin-sensitive strain; agar dilution
Procedure: (§2) The MIC's in Tables V and VI were determined by standard agar-dilution assays. The MIC's in Table VII were obtained using a conventional broth-dilution microtiter test.

[11] = system: Streptococcus pyogenes C203; experiment: MIC, standard agar-dilution assay (Table V); type: cell-based; details: S. pyogenes C203; agar dilution
Procedure: as §2

[12] = system: Haemophilus influenzae R252; experiment: MIC, standard agar-dilution assay (Table V); type: cell-based; details: H. influenzae R252, ampicillin-resistant strain; agar dilution
Procedure: as §2

Escherichia coli TEM = experiment: MIC, standard agar-dilution assay (Table V); type: cell-based; details: E. coli TEM; agar dilution
Procedure: as §2

Pasteurella multocida = experiment: Protection of one-day-old chicks against Pasteurella multocida infection (Table IX); type: in vivo; details: subcutaneous 30 mg/kg × 2, 1 and 4 hours post-challenge
Procedure: The C-23 modified derivatives of OMT have also shown in vivo antibacterial activity against infections induced by gram-negative bacteria. Table IX summarizes the results of tests in which illustrative compounds were evaluated against Pasteurella infections in one-day-old chicks. The compounds were administered by subcutaneous injection at a dosage of 30 mg/kg, 1 and 4 hours post-challenge of the chicks with Pasteurella multocida (0.1 ml of a twenty-hour tryptose broth culture of an avian P. multocida given subcutaneously). In the tests, all ten non-medicated infected chicks died within 24 hours of Pasteurella challenge.

[13] = system: Streptococcus pneumoniae Park I; experiment: microbe, parasite or virus in culture; type: cell-based; details: S. pneumoniae Park I; agar dilution
Procedure: as §1

[14] = system: Pasteurella multocida 40G; experiment: MIC, broth-dilution microtiter test (Table VII); type: cell-based; details: P. multocida 40G; broth-dilution microtiter
Procedure: as §1

[15] = system: Pasteurella hemolytica 41D; experiment: MIC, broth-dilution microtiter test (Table VII); type: cell-based; details: P. hemolytica 41D
Procedure: as §1

Mycoplasma hyorhinis = experiment: MIC, broth-dilution microtiter test (Table VII); type: cell-based; details: M. hyorhinis; broth-dilution microtiter
Procedure: as §1

[16] = system: Pasteurella multocida 60A; experiment: MIC, broth-dilution microtiter test (Table VII); type: cell-based; details: P. multocida 60A, avian isolate; broth-dilution microtiter
Procedure: as §1

Mycoplasma gallisepticum = experiment: MIC, broth-dilution microtiter test (Table VII); type: cell-based; details: M. gallisepticum; broth-dilution microtiter
Procedure: as §1

[17] = system: Pasteurella hemolytica 23C; experiment: MIC, broth-dilution microtiter test (Table VII); type: cell-based; details: P. hemolytica 23C
Procedure: as §1

Mycoplasma synoviae = experiment: MIC, broth-dilution microtiter test (Table VII); type: cell-based; details: M. synoviae; broth-dilution microtiter
Procedure: as §1

[18] = system: Pasteurella hemolytica 22C; experiment: MIC, broth-dilution microtiter test (Table VII); type: cell-based; details: P. hemolytica 22C
Procedure: as §1

[19] = system: Pasteurella multocida 17E; experiment: MIC, broth-dilution microtiter test (Table VII); type: cell-based; details: P. multocida 17E, bovine isolate; broth-dilution microtiter
Procedure: as §1

Streptococcus sp. 80 = experiment: MIC, broth-dilution microtiter test (Table VII); type: cell-based; details: Streptococcus sp. 80; broth-dilution microtiter
Procedure: as §1

[20] = system: Pasteurella multocida 68C; experiment: MIC, broth-dilution microtiter test (Table VII); type: cell-based; details: P. multocida 68C; broth-dilution microtiter
Procedure: as §1

[21] = system: Pasteurella multocida 22A; experiment: MIC, broth-dilution microtiter test (Table VII); type: cell-based; details: P. multocida 22A; broth-dilution microtiter
Procedure: as §1

Staphylococcus aureus = experiment: MIC, broth-dilution microtiter test (Table VII); type: cell-based; details: S. aureus; broth-dilution microtiter
Procedure: as §1

Row | SMILES | MIC [1] [µg/mL] | MIC [2] [µg/mL] | MIC (Escherichia coli N10) | MIC [3] | MIC [4] [µg/mL] | MIC [5] [µg/mL] | MIC [6] [µg/mL] | MIC (Streptococcus Group 9960) [µg/mL] | MIC [7] [µg/mL] | MIC (Escherichia coli EC14) | MIC [8] [µg/mL] | MIC [9] | MIC [10] | MIC [11] [µg/mL] | MIC [12] | MIC (Escherichia coli TEM) | Number of deaths/number treated (Pasteurella multocida) | MIC [13] [µg/mL] | MIC [14] [µg/mL] | MIC [15] [µg/mL] | other results
1 | CCC1OC(=O)CC(O)C(C)C(OC2OC(C)C(O)C(N(C)C)C2O)C(CC=O)CC(C)C(=O)C=CC(C)=CC1CNC(=O)CNC(=O)C(C)N (centres unmarked) [Compound 14] | 64 (≈ 88.3 µM) | 64 (≈ 88.3 µM) | -- (MIC ≥ 128) | -- (MIC ≥ 128) | 64 (≈ 88.3 µM) | 64 (≈ 88.3 µM) | 64 (≈ 88.3 µM) | 64 (≈ 88.3 µM) | 64 (≈ 88.3 µM) | -- (MIC ≥ 128) | 128 (≈ 177 µM) | -- (MIC ≥ 128) | -- (MIC ≥ 128) | 16 (≈ 22.1 µM) | -- (MIC ≥ 128) | -- (MIC ≥ 128) | 10/10 | 16 (≈ 22.1 µM) | > 50 | > 50 | MIC (Mycoplasma hyorhinis): 50 µg/mL (≈ 69 µM); MIC [16]: > 50 µg/mL; MIC (Mycoplasma gallisepticum): 12.5 µg/mL (≈ 17.2 µM); MIC [17]: > 50 µg/mL; MIC (Mycoplasma synoviae): 6.25 µg/mL (≈ 8.62 µM); MIC [18]: > 50 µg/mL; MIC [19]: > 50 µg/mL; MIC (Streptococcus sp. 80): 25 µg/mL (≈ 34.5 µM); MIC [20]: > 50 µg/mL; MIC [21]: > 50 µg/mL; MIC (Staphylococcus aureus): > 50 µg/mL
2 | CCC1OC(=O)CC(O)C(C)C(OC2OC(C)C(O)C(N(C)C)C2O)C(CC=O)CC(C)C(=O)C=CC(C)=CC1CNC(=O)CNC(=O)C(C)NC(=O)OC(C)(C)C (centres unmarked) [Compound 13] | 32 (≈ 38.8 µM) | 32 (≈ 38.8 µM) | -- (MIC ≥ 128) | -- (MIC ≥ 128) | 16 (≈ 19.4 µM) | 32 (≈ 38.8 µM) | 32 (≈ 38.8 µM) | 32 (≈ 38.8 µM) | 16 (≈ 19.4 µM) | -- (MIC ≥ 128) | 32 (≈ 38.8 µM) | -- (MIC ≥ 128) | 64 µg/mL (≈ 77.6 µM) | 4 (≈ 4.85 µM) | 64 µg/mL (≈ 77.6 µM) | -- (MIC ≥ 128) | 7/10 | 4 (≈ 4.85 µM) | 50 (≈ 60.6 µM) | > 50 | MIC (Mycoplasma hyorhinis): 50 µg/mL (≈ 60.6 µM); MIC [16]: 50 µg/mL (≈ 60.6 µM); MIC (Mycoplasma gallisepticum): 6.25 µg/mL (≈ 7.58 µM); MIC [17]: > 50 µg/mL; MIC (Mycoplasma synoviae): 12.5 µg/mL (≈ 15.2 µM); MIC [18]: > 50 µg/mL; MIC [19]: 50 µg/mL (≈ 60.6 µM); MIC (Streptococcus sp. 80): 6.25 µg/mL (≈ 7.58 µM); MIC [20]: 50 µg/mL (≈ 60.6 µM); MIC [21]: > 50 µg/mL; MIC (Staphylococcus aureus): 25 µg/mL (≈ 30.3 µM)
